Patent publication EP4596574A1, “GLP-1/GCG/GIP TRIPLE-RECEPTOR AGONIST AND USE THEREOF” (Sunshine Lake Pharma Co., Ltd., priority 2022, dated 2024)
Marks after values point to notes of the source that are not given here.

What was measured:
[1] = Glucose tolerance assessment in normal C57BL/6 mice (Example 5); format: in vivo; conditions: 3 nmol/kg s.c. single dose, 24 h after administration
Procedure, shortened: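 Normal C57BL/6 mice given a single dose, fasted 12 h starting 12 h post-dose, then challenged with 2 g/kg glucose i.p. Tail-vein glucose measured at baseline and 15, 30, 60, 90 min. AUC0~90min calculated from the glucose–time curve per dose group.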

[2] = target: T1, GIPR (Homo sapiens, UniProt P48546); assay: In vitro cell activity, cAMP production in HEK293 cells expressing GIPR; format: cell-based
T1 construct: expressed in transfected cells; host or cells: HEK293 (HEK293-GIPR)
T1 sequence (P48546 22-466): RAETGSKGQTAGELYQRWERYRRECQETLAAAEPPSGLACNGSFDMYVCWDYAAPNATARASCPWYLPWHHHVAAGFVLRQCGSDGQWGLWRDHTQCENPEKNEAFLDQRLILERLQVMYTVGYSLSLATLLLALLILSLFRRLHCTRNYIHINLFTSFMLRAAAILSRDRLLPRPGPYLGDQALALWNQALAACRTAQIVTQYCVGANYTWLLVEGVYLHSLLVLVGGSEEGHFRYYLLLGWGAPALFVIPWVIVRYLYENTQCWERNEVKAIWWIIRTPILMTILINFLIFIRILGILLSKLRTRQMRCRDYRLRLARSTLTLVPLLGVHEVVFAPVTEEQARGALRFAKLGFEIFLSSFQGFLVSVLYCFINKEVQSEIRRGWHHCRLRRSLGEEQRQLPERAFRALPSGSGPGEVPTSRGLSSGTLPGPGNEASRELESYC
Procedure, shortened: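 HEK293 cells expressing human GIPR, thawed and diluted to 4×10^5 cells/mL, are stimulated with test compound. cAMP is measured by HTRF competition between cAMP-d2 and anti-cAMP cryptate. EC50 comes from a four-parameter nonlinear fit of signal ratio against concentration.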

[3] = target: T2, GLP-1R (Homo sapiens, UniProt P43220); assay: In vitro cell activity, cAMP production in HEK293 cells expressing GLP-1R; format: cell-based
T2 construct: expressed in transfected cells; host or cells: HEK293 (HEK293-GLP-1R)
Procedure, shortened: (§1)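 cAMP output read as 665/620 nm HTRF ratio after adding cAMP-d2 plus anti-cAMP cryptate and incubating 1 h at room temperature in the dark or overnight at 4 °C. Cells: HEK293 expressing human GLP-1R or GCGR, plated from a 4×10^5 cells/mL suspension. Four-parameter fit gives EC50.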

[4] = Pharmacokinetic study in rats, single subcutaneous injection; conditions: male, Sprague Dawley, in vivo, sc, rat, 50 nmol/kg single subcutaneous injection, plasma
Description: The pharmacokinetic study of each polypeptide compound prepared in Example 1 was conducted using male Sprague Dawley rats. There were 3 male rats in each group. […] The dose was 50 nmol/kg, and a single subcutaneous injection was given (see Table 3 for specific peptide compounds). After administration, plasma was collected on the specified days and time points, and the concentration of each peptide compound in the plasma was detected by LC-MS/MS method. The pharmacokinetic parameters were obtained based on the concentration data, which were used to describe the pharmacokinetic properties of the peptide in rats after subcutaneous injection. Table 3: Summary of pharmacokinetic parameters of some triple-target peptides in rats

[5] = target: T3, GCGR (Homo sapiens, UniProt P47871); assay: In vitro cell activity, cAMP production in HEK293 cells expressing GCGR; format: cell-based
T3 construct: expressed in transfected cells; host or cells: HEK293 (HEK293-GCGR)
Procedure, shortened: as §1

T3 sequence (P47871 26-477, species assumed): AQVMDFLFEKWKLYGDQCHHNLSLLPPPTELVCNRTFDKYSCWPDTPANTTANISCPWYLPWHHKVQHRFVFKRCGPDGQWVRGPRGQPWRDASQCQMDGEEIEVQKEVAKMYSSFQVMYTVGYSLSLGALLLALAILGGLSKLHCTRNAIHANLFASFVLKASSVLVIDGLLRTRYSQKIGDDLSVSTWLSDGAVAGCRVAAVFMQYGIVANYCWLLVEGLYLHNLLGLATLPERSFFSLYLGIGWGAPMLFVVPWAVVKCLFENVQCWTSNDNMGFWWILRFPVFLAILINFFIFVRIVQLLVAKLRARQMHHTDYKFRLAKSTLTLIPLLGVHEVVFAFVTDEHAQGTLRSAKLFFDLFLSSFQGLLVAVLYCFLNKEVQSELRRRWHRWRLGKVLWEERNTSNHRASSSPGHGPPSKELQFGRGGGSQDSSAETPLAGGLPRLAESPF
T2 sequence (P43220 24-463, species assumed): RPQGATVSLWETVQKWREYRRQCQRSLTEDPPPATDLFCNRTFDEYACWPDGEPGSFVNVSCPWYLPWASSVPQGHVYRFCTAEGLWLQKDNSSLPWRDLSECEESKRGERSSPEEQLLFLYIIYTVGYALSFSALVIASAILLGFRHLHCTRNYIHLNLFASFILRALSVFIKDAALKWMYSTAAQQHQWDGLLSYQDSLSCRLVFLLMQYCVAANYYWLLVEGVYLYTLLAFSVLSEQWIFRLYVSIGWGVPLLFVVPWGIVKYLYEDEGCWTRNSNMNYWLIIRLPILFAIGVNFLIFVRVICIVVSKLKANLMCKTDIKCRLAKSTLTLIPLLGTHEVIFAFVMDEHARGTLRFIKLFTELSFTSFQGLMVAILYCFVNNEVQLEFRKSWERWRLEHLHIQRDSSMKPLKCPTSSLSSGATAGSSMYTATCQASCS

For `CC[C@H](C)[C@H](NC(=O)[C@H](Cc1ccccc1)NC(=O)[C@H](CCC(=O)O)NC(=O)[C@H](CCCNC(=N)N)NC(=O)[C@H](CCC(N)=O)NC(=O)[C@H](CCCNC(=N)N)NC(=O)[C@H](CCCCNC(=O)COCCOCCNC(=O)CC[C@H](NC(=O)CCCCCCCCCCCCCCCCCCC(=O)O)C(=O)O)NC(=O)[C@H](CCC(=O)O)NC(=O)[C@H](CC(=O)O)NC(=O)[C@H](CC(C)C)NC(=O)[C@H](CC(C)C)NC(=O)[C@@H](NC(=O)[C@H](CO)NC(=O)[C@H](Cc1ccc(O)cc1)NC(=O)[C@H](CC(=O)O)NC(=O)[C@H](CO)NC(=O)[C@@H](NC(=O)[C@](C)(Cc1ccccc1F)NC(=O)[C@@H](NC(=O)CNC(=O)[C@H](Cc1c[nH]cn1)NC(=O)C(C)(C)NC(=O)[C@@H](N)Cc1ccc(O)cc1)[C@@H](C)O)[C@@H](C)O)[C@@H](C)CC)C(=O)N[C@@H](CCC(=O)O)C(=O)N[C@@H](Cc1c[nH]c2ccccc12)C(=O)N[C@@H](CC(C)C)C(=O)N[C@@H](CC(C)C)C(=O)N[C@@H](C)C(=O)NCC(=O)NCC(=O)N1CCC[C@H]1C(=O)N[C@@H](CO)C(=O)N[C@@H](CO)C(=O)NCC(=O)N[C@@H](C)C(=O)N1CCC[C@H]1C(=O)N1CCC[C@H]1C(=O)N1CCC[C@H]1C(=O)N[C@@H](CO)C(=O)O` [HEC-PT96], the “Blood glucose level (mM) 15 min” value ([1]; 15 min after 2 g/kg glucose i.p.) was 13.0 ± 2.9 mM, the “Blood glucose level (mM) 30 min” value ([1]; 30 min after 2 g/kg glucose i.p.) was 10.8 ± 3.2 mM and the “Blood glucose level (mM) 60 min” value ([1]; 60 min after 2 g/kg glucose i.p.) was 7.9 ± 1.6 mM. The “Blood glucose level (mM) 90 min” value ([1]; 90 min after 2 g/kg glucose i.p.) was 6.2 ± 1.3 mM, the “Blood glucose level (mM) 0 min” value ([1]; basal before 2 g/kg glucose i.p.) was 4.2 ± 0.6 mM and the AUC0-90 min ([1]; blood glucose AUC, 2 g/kg glucose i.p.) was 798.9±146.0^a. For the same compound, the EC50 [2] was 0.149 nM, the EC50 [3] was 0.158 nM and the AUC(0-inf) [4] was 40900 ± 1990 ng·h/mL. The AUC(0-t) [4] was 40300 ± 1930 ng·h/mL, the Cmax [4] was 840 ± 41.4 ng/mL and the half-life ([4]; read-out: T1/2 (converted)) was 1020 ± 39 min. For the same compound, the Tmax ([4]; read-out: Tmax) was 25 ± 2.3 h and the EC50 [5] was 0.192 nM.
